Source: patent US11911521B2, “Antibacterial nanofiber” (UNIVERSITY OF MANITOBA, priority 2017, dated 2024)

What was measured:
Type in all cases: cell-based
[1] = system: ATCC-PCS-201 neonatal human dermal fibroblast; assay: In vitro cytotoxicity assay (MTT) on fibroblast cells; details: after 24 h of contact, free BTAC at 34 mg/L
Protocol: An in vitro cytotoxicity assay was conducted on fibroblast cells (ATCC-PCS-201 neonatal human dermal fibroblast) to evaluate the effect of drug-loaded nanofibers. Nanofibers were cut in to the same shape and weighted to 4 mg (triplicate). They were pre-soaked in 1 mL of ethanol for 10 min. Samples were exposed to UV light for 45 min (each side). Fibroblast cells were cultured in 24 well-plates at density of 1×10^5 (cell/mL). After reaching to 90% confluence, 2 mL of fibroblast culture medium was added to each of the wells and the dressings. Afterwards, the cells were incubated at 37° C. for 24 h. Cell viability was determined using MTT assay after removal of dressings. Each well received 500 μL of 1:10 (v/v) MTT and fibroblast medium solution. Subsequently, after 2 h incubation at 37° C., the culture medium with the MTT solution were aspirated and replaced by 500 μL DMSO. Finally, 100 μL aliquots from each well (in triplicate) were transferred to 96-well plates and viability of cells was evaluated using spectrophotometer at 570 nm wavelength (PowerWave™ XS2 Microplate Spectrophotometer, BioTek Instruments Inc., Canada).

[2] = system: Escherichia coli (E-coli—ATCC 25922); assay: Antibacterial test by colony counting method, E. coli; details: for logarithm reduction of bacteria / percentage reduction of bacteria: E. coli ~8 Log CFU/mL
Protocol: (§1) The antibacterial activity of the nanofiber mats was tested by colony counting method against Staphylococcus aureus (S. aureus) and E. coli, which are commonly found on burn wounds. For the antibacterial studies, logarithmic-phase cultures were prepared by initially suspending several colonies in phosphate buffered saline (PBS, 0.1 M, pH 7.4) at a density equivalent to a 0.5 McFarland standard of 1×10^8 colony forming units (CFU) mL^−1 and then diluted 100 times to 1×10^6 CFU mL^−1. 15 μL of the diluted E-coli and S. aureus suspension was further diluted into 45 mL cation-supplemented MuellerHinton (MH) broth and TSB, respectively. After culturing in the incubator at 37° C. for overnight, the concentration of bacteria went up to 10^8 CFU mL^−1. 2 mL of bacteria suspension was added to 4 mg of nanofibers and incubated. At the predetermined contact times, 150 μL of bacteria culture was taken from the flask, neutralized, and decimal serial dilutions with PBS were repeated with each initial sample. 30 μL of the diluted sample was then spread onto four zones of a Tryptone Soya agar plate (CM 0131, OXOID). After incubation of the plates at 37° C. for 18 h, the number of viable bacteria (colonies) was counted manually for control (A, bacteria suspension without sample) and BTAC-loaded nanofibers (B). Bacteria reduction was reported as percentage and Log 10. The percentage reduction of bacteria (%)=(A−B)/A×100; and logarithm reduction=log(A/B).

[3] = system: Staphylococcus aureus (S. aureus—ATCC 29213); assay: Antibacterial test by colony counting method, S. aureus; details: for logarithm reduction of bacteria / percentage reduction of bacteria: S. aureus ~8 Log CFU/mL
Protocol: as §1

## CCCCCCCCCCCCCC[N+](C)(C)Cc1ccccc1 [BTAC, benzyl dimethyl tetradecyl ammonium chloride]
[1]
  fibroblast cell viability: 55.2±4.0
[2]; contact time 5 min
  logarithm reduction of bacteria: 1.3 ± 0.0 Log10
  percentage reduction of bacteria: 95.3 ± 0.3%
[2]; contact time 10 min
  logarithm reduction of bacteria: 1.4 ± 0.1 Log10
  percentage reduction of bacteria: 96.0 ± 0.2%
[2]; contact time 20 min
  logarithm reduction of bacteria: 1.9 ± 0.1 Log10
  percentage reduction of bacteria: 98.8 ± 0.5%
[2]; contact time 30 min
  logarithm reduction of bacteria: 8.9 Log10
  percentage reduction of bacteria: 100.0%
[2]; against E. coli
  time to 100% bacteria inhibition: < 60 min
[3]; contact time 5 min
  logarithm reduction of bacteria: 1.4 ± 0.2 Log10
  percentage reduction of bacteria: 96.1 ± 0.2%
[3]; contact time 10 min
  logarithm reduction of bacteria: 1.8 ± 0.3 Log10
  percentage reduction of bacteria: 98.5 ± 0.9%
[3]; contact time 20 min
  logarithm reduction of bacteria: 8.9 Log10
  percentage reduction of bacteria: 100.0%
[3]; against S. aureus
  time to 100% bacteria inhibition: < 60 min
